In patent US6844465B2, “Method for preparing highly stable crystals of aspartame derivative” (Ajinomoto Co., Inc., priority 1998, dated 2005):
Blank lines part the entries; values can stand above or below the compound they belong to.

Key:
[1] = on the weight basis, cited from earlier work
[2] = Stability test at 70° C. of crystals (remaining ratio of N-(3,3-dimethylbutyl)-APM); type: physicochemical
Description: Then, the obtained G-type crystals, D-type crystals and A-type crystals of N-(3,3-dimethylbutyl)-APM were tested at 70° C., concerning their stability. […] The relationship between the storage time and the remaining ratio of N-(3,3-dimethylbutyl)-APM in this test will be shown below in Table 1.

Compound: COC(=O)[C@H](Cc1ccccc1)NC(=O)[C@H](CC(=O)O)NCCC(C)(C)C [N-(3,3-dimethylbutyl)-ATM, N-[N-(3,3-dimethylbutyl)-L-α-aspartyl]-L-phenylalanine methyl ester]
sweetening potency relative to aspartame ([1]; times that of aspartame): at least 50 times
sweetening potency relative to sucrose (table sugar) ([1]; times that of sucrose): about 10,000 times

Remaining Ratio (wt. %) ([2]; time elapsed 0 hrs, listed as D): 95 wt. %
Remaining Ratio (wt. %) ([2]; time elapsed 100 hrs, listed as D): 96 wt. %
Remaining Ratio (wt. %) ([2]; time elapsed 271 hrs): 77 wt. %
Remaining Ratio (wt. %) ([2]; time elapsed 271 hrs, listed as D): 77 wt. %
Compound: COC(=O)[C@H](Cc1ccccc1)NC(=O)[C@H](CC(=O)O)NCCC(C)(C)C [D-type crystals, N-[N-(3,3-dimethylbutyl)-L-α-aspartyl]-L-phenylalanine methyl ester]

Remaining Ratio (wt. %) ([2]; time elapsed 0 hrs, listed as G): 96 wt. %
Remaining Ratio (wt. %) ([2]; time elapsed 100 hrs, listed as G): 48 wt. %
Remaining Ratio (wt. %) ([2]; time elapsed 271 hrs): 18 wt. %
Remaining Ratio (wt. %) ([2]; time elapsed 271 hrs, listed as G): 18 wt. %
Compound: COC(=O)[C@H](Cc1ccccc1)NC(=O)[C@H](CC(=O)O)NCCC(C)(C)C [G-type crystals, N-[N-(3,3-dimethylbutyl)-L-α-aspartyl]-L-phenylalanine methyl ester]

Remaining Ratio (wt. %) ([2]; time elapsed 0 hrs, listed as A): 95 wt. %
Remaining Ratio (wt. %) ([2]; time elapsed 100 hrs, listed as A): 94 wt. %
Remaining Ratio (wt. %) ([2]; time elapsed 271 hrs): 96 wt. %
Remaining Ratio (wt. %) ([2]; time elapsed 271 hrs, listed as A): 96 wt. %
Compound: COC(=O)[C@H](Cc1ccccc1)NC(=O)[C@H](CC(=O)O)NCCC(C)(C)C [A-type crystals, N-[N-(3,3-dimethylbutyl)-L-α-aspartyl]-L-phenylalanine methyl ester]
